Among the data in US8551984B2, “Aminopyrimidines as SYK inhibitors” (Merck Sharp & Dohme Corp., priority 2009, dated 2013) are IC50 values, retold here.

The target of this assay is recombinant human SYK (GST-hSYK fusion protein) (Homo sapiens, UniProt P43405). Kind of assay: biochemical. The following applies: rhSYK Activity (IC50), recombinant human GST-SYK 5 pM, ATP 25 μM, biotinylated substrate peptide 250 nM, HTRF, 10-dose titration.

Excerpt: Homogeneous Time-Resolved Fluorescence (HTRF) Assay for the Recombinant Human SYK Enzyme:

For `Cc1cc(Nc2nccc(C(F)(F)F)n2)cc(-c2cnc(C(=O)N3CC[C@H](CO)C3)s2)c1` [Example 87B-16], the IC50 was under 100 nM. Under `Cc1cc(Nc2nccc(C(F)(F)F)n2)cc(-c2cnc(C(=O)N3CCC(O)C3)s2)c1` (stereo not shown) [Example 87B-17] stands under 100 nM; under `Cc1cc(Nc2nccc(C(F)(F)F)n2)cc(-c2cnc(C(=O)N3C[C@@H](O)[C@@H](O)C3)s2)c1` [Example 87B-18], under 100 nM. In the case of `Cc1cc(Nc2nccc(C(F)(F)F)n2)cc(-c2cnc(C(=O)N3CCC(C(=O)O)CC3)s2)c1` [Example 87B-19] it was under 100 nM; in that of `Cc1cc(Nc2nccc(C(F)(F)F)n2)cc(-c2cnc(C(=O)N3CC(O)CC3C(=O)O)s2)c1` (stereo not shown) [Example 87B-20], under 100 nM; in that of `COC(=O)C1CC(O)CN1C(=O)c1ncc(-c2cc(C)cc(Nc3nccc(C(F)(F)F)n3)c2)s1` (stereo not shown) [Example 87B-21], under 100 nM.

Take `Cc1cc(Nc2nccc(C(F)(F)F)n2)cc(-c2cnc(C(=O)N3CCC(O)(C(=O)O)CC3)s2)c1` [Example 87B-22]: the 50% inhibitory concentration (IC50) is under 100 nM.

With `Cc1cc(Nc2nccc(C(F)(F)F)n2)cc(-c2cnc(CNCC3CCC(=O)N3)s2)c1` (stereo not shown) [Example 88, 5-[({[5-(3-methyl-5-{[4-(trifluoromethyl)pyrimidin-2-yl]amino}phenyl)-1,3-thiazol-2-yl]-methyl}amino)methyl]pyrrolidin-2-one], the 50% inhibitory concentration (IC50) is under 100 nM.

With `Cc1cc(Nc2nccc(C(F)(F)F)n2)cc(-c2cnc(CNc3cncnc3)s2)c1` [Example 88A-1], the IC50 was under 100 nM. In the case of `Cc1cc(Nc2nccc(C(F)(F)F)n2)cc(-c2cnc(CNCC(O)C(F)F)s2)c1` (stereo not shown) [Example 88A-2] it was under 100 nM; in that of `Cc1cc(Nc2nccc(C(F)(F)F)n2)cc(-c2cnc(CNCc3n[nH]c(=O)[nH]3)s2)c1` [Example 88A-3], under 100 nM; in that of `Cc1cc(Nc2nccc(C(F)(F)F)n2)cc(-c2cnc(CNC3CCS(=O)(=O)C3)s2)c1` (stereo not shown) [Example 88A-5], under 100 nM. For `Cc1cc(Nc2nccc(C(F)(F)F)n2)cc(-c2cnc(CN(C)C(C3CC3)C3CC3)s2)c1` [Example 88A-7], the IC50 was under 100 nM. For the molecule `C=C(F)CNCc1ncc(-c2cc(C)cc(Nc3nccc(C(F)(F)F)n3)c2)s1` [Example 88A-8], the half-maximal inhibitory concentration (IC50) was under 100 nM. Under `Cc1cc(Nc2nccc(C(F)(F)F)n2)cc(-c2cnc(CNC(C)c3ccccn3)s2)c1` (stereo not shown) [Example 88A-9] stands under 100 nM; under `Cc1cc(Nc2nccc(C(F)(F)F)n2)cc(-c2cnc(CNc3cn(C(C)C)nn3)s2)c1` [Example 88A-10], under 100 nM.

Turning to `Cc1cc(Nc2nccc(C(F)(F)F)n2)cc(-c2cnc(CN(C)CCO)s2)c1` [Example 88A-12], the IC50 is under 100 nM. In the case of `Cc1cc(Nc2nccc(C(F)(F)F)n2)cc(-c2cnc(CN(CCO)CCO)s2)c1` [Example 88A-13] it was under 100 nM. In the case of `Cc1cc(Nc2nccc(C(F)(F)F)n2)cc(-c2cnc(CNC(C)(CO)CO)s2)c1` [Example 88A-14] it was under 100 nM; in that of `Cc1cc(Nc2nccc(C(F)(F)F)n2)cc(-c2cnc(CNC(C)CO)s2)c1` (stereo not shown) [Example 88A-15], under 100 nM.

Turning to `CCC(CO)NCc1ncc(-c2cc(C)cc(Nc3nccc(C(F)(F)F)n3)c2)s1` (stereo not shown) [Example 88A-16], the half-maximal inhibitory concentration (IC50) is under 100 nM. With `Cc1cc(Nc2nccc(C(F)(F)F)n2)cc(-c2cnc(CNCC(C)O)s2)c1` (stereo not shown) [Example 88A-17], the 50% inhibitory concentration (IC50) is under 100 nM. Under `Cc1cc(Nc2nccc(C(F)(F)F)n2)cc(-c2cnc(CNCCO)s2)c1` [Example 88A-18] stands under 100 nM; under `Cc1cc(Nc2nccc(C(F)(F)F)n2)cc(-c2cnc(CNCCCO)s2)c1` [Example 88A-19], under 100 nM. In the case of `Cc1cc(Nc2nccc(C(F)(F)F)n2)cc(-c2cnc(CNCCCCO)s2)c1` [Example 88A-20] it was under 100 nM; in that of `Cc1cc(Nc2nccc(C(F)(F)F)n2)cc(-c2cnc(CNC3(C(=O)O)CC3)s2)c1` [Example 88A-21], under 100 nM; in that of `Cc1cc(Nc2nccc(C(F)(F)F)n2)cc(-c2cnc(CNCC(N)=O)s2)c1` [Example 88A-22], under 100 nM. In the case of `Cc1cc(Nc2nccc(C(F)(F)F)n2)cc(-c2cnc(CNCCC(N)=O)s2)c1` [Example 88A-23] it was under 100 nM; in that of `Cc1cc(Nc2nccc(C(F)(F)F)n2)cc(-c2cnc(CNCCS(C)(=O)=O)s2)c1` [Example 88A-24], under 100 nM. Take `Cc1cc(Nc2nccc(C(F)(F)F)n2)cc(-c2cnc(CN(C)CCS(C)(=O)=O)s2)c1` [Example 88A-25]: the IC50 was under 100 nM. In the case of `CCn1cc(NCc2ncc(-c3cc(C)cc(Nc4nccc(C(F)(F)F)n4)c3)s2)nn1` [Example 88A-26] it was under 100 nM; in that of `Cc1cc(Nc2nccc(C(F)(F)F)n2)cc(-c2cnc(CN(C)CC(O)CO)s2)c1` (stereo not shown) [Example 88A-28], under 100 nM; in that of `Cc1cc(Nc2nccc(C(F)(F)F)n2)cc(-c2cnc(CNC3CCCCNC3=O)s2)c1` (stereo not shown) [Example 88A-29], under 100 nM.

`Cc1cc(Nc2nccc(C(F)(F)F)n2)cc(-c2cnc(CNCCN3CCNC(=O)C3)s2)c1` [Example 88A-30]: the IC50 was under 100 nM. In the case of `CNS(=O)(=O)CCNCc1ncc(-c2cc(C)cc(Nc3nccc(C(F)(F)F)n3)c2)s1` [Example 88A-31] it was under 100 nM; in that of `Cc1cc(Nc2nccc(C(F)(F)F)n2)cc(-c2cnc(CNc3cc(C(=O)O)n[nH]3)s2)c1` [Example 88A-32], under 100 nM; in that of `Cc1cc(Nc2nccc(C(F)(F)F)n2)cc(-c2cnc(CNCC(C)(C)O)s2)c1` [Example 88A-33], under 100 nM.

With `Cc1cc(Nc2nccc(C(F)(F)F)n2)cc(-c2cnc(CNC3CCNC3=O)s2)c1` (stereo not shown) [Example 88A-35], the IC50 was under 100 nM. In the case of `Cc1cc(Nc2nccc(C(F)(F)F)n2)cc(-c2cnc(CNC3CNC(=O)C3)s2)c1` (stereo not shown) [Example 88A-36] it was under 100 nM. In the case of `Cc1cc(Nc2nccc(C(F)(F)F)n2)cc(-c2cnc(C(C)N(C)C)s2)c1` (stereo not shown) [Example 88A-38] it was under 100 nM; in that of `Cc1cc(Nc2nccc(C(F)(F)F)n2)cc(-c2cnc(C(C)NC3CNC(=O)C3)s2)c1` (stereo not shown) [Example 88A-39], under 100 nM. Under `Cc1cc(Nc2nccc(C(F)(F)F)n2)cc(-c2cnc(CN)s2)c1` [Example 88A-40] stands under 100 nM; under `Cc1cc(Nc2nccc(C(F)(F)F)n2)cc(-c2cnc(CNCC(O)CO)s2)c1` (stereo not shown) [Example 88A-41], under 100 nM.

Turning to `Cc1cc(Nc2nccc(C(F)(F)F)n2)cc(-c2cnc(CNCCOCCO)s2)c1` [Example 88A-42], the IC50 is under 100 nM. In the case of `Cc1cc(Nc2nccc(C(F)(F)F)n2)cc(-c2cnc(CNC(C)(C)CC(C)O)s2)c1` (stereo not shown) [Example 88A-45] it was under 100 nM. Under `Cc1cc(Nc2nccc(C(F)(F)F)n2)cc(-c2cnc(CNCC3(CO)COC3)s2)c1` [Example 88A-46] stands under 100 nM; under `Cc1cc(Nc2nccc(C(F)(F)F)n2)cc(-c2cnc(CNC(CO)(CO)CO)s2)c1` [Example 88A-47], under 100 nM; under `Cc1cc(Nc2nccc(C(F)(F)F)n2)cc(-c2cnc(CNCC3(CO)CCOCC3)s2)c1` [Example 88A-49], under 100 nM. For `Cc1cc(Nc2nccc(C(F)(F)F)n2)cc(-c2cnc(CNCCCN(CCO)CCO)s2)c1` [Example 88A-51], the IC50 is under 100 nM.

`Cc1cc(Nc2nccc(C(F)(F)F)n2)cc(-c2cnc(CN(CCO)CCS(=O)(=O)O)s2)c1` [Example 88A-52]: the IC50 is under 100 nM. In the case of `Cc1cc(Nc2nccc(C(F)(F)F)n2)cc(-c2cnc(CN(C)C3COCC3O)s2)c1` (stereo not shown) [Example 88A-54] it was under 100 nM.

Regarding `Cc1cc(Nc2nccc(C(F)(F)F)n2)cc(-c2cnc(CNC3(C)CCCCC3CO)s2)c1` (stereo not shown) [Example 88A-55], the IC50 was under 100 nM.

As to `Cc1cc(Nc2nccc(C(F)(F)F)n2)cc(-c2cnc(CNC3CS(=O)(=O)CC3O)s2)c1` (stereo not shown) [Example 88A-57], the 50% inhibitory concentration (IC50) was under 100 nM. As for `CCN(Cc1ncc(-c2cc(C)cc(Nc3nccc(C(F)(F)F)n3)c2)s1)C1CS(=O)(=O)CC1O` (stereo not shown) [Example 88A-58], the half-inhibitory concentration (IC50) is under 100 nM. In the case of `CNC(=O)NCc1ncc(-c2cc(C)cc(Nc3nccc(C(F)(F)F)n3)c2)s1` [Example 88A-61] it was under 100 nM; in that of `CCNC(=O)NCc1ncc(-c2cc(C)cc(Nc3nccc(C(F)(F)F)n3)c2)s1` [Example 88A-62], under 100 nM. In the case of `Cc1cc(Nc2nccc(C(F)(F)F)n2)cc(-c2cnc(CNC(=O)NC(C)C)s2)c1` [Example 88A-63] it was under 100 nM; in that of `CCOC(=O)C(C)NC(=O)NCc1ncc(-c2cc(C)cc(Nc3nccc(C(F)(F)F)n3)c2)s1` (stereo not shown) [Example 88A-64], under 100 nM.

Regarding `Cc1cc(Nc2nccc(C(F)(F)F)n2)cc(-c2cnc(CN3CCCC(C)(O)C3)s2)c1` (stereo not shown) [Example 88B-1], the 50% inhibitory concentration (IC50) is under 100 nM.

In the case of `Cc1cc(Nc2nccc(C(F)(F)F)n2)cc(-c2cnc(CN3CCC(C)(O)C3)s2)c1` (stereo not shown) [Example 88B-2], the half-maximal inhibitory concentration (IC50) was under 100 nM.

With `Cc1cc(Nc2nccc(C(F)(F)F)n2)cc(-c2cnc(CN3CC[S+]([O-])CC3)s2)c1` [Example 88B-3], the 50% inhibitory concentration (IC50) was under 100 nM. Turning to `Cc1cc(Nc2nccc(C(F)(F)F)n2)cc(-c2cnc(CN3CCC[S+]([O-])CC3)s2)c1` (stereo not shown) [Example 88B-4], the IC50 is under 100 nM. Under `Cc1cc(Nc2nccc(C(F)(F)F)n2)cc(-c2cnc(CN3CCC(C)(O)CC3)s2)c1` [Example 88B-5] stands under 100 nM. Under `CC(=O)N1CCN(Cc2ncc(-c3cc(C)cc(Nc4nccc(C(F)(F)F)n4)c3)s2)CC1` [Example 88B-6] stands under 100 nM; under `Cc1cc(Nc2nccc(C(F)(F)F)n2)cc(-c2cnc(CN3CCNC(=O)CC3)s2)c1` [Example 88B-7], under 100 nM; under `Cc1cc(Nc2nccc(C(F)(F)F)n2)cc(-c2cnc(CN3CCCNC(=O)C3)s2)c1` [Example 88B-8], under 100 nM. In the case of `Cc1cc(Nc2nccc(C(F)(F)F)n2)cc(-c2cnc(CN3CCN(S(C)(=O)=O)CC3)s2)c1` [Example 88B-9] it was under 100 nM.
